Data from ChEMBL document CHEMBL4477215, “Specific Correction of Alternative Survival Motor Neuron 2 Splicing by Small Molecules: Discovery of a Potential Novel Medicine To Treat Spinal Muscular Atrophy” (J Med Chem, 2016).

Assays:
[1] = Oral bioavailability in Cynomolgus monkey at 1 mg/kg; format: ADME, organism-based, Macaca fascicularis; conditions: in vivo
Mus musculus [2] = assay: Inhibition of mRNA splicing of SMN2 exon 7 in C/C-allele mouse harboring FVB.129(B6) Smn1tm5(Smn1/SMN2)Mrph/J assessed as increase in SMN protein level in quadriceps at 10 mg/kg, po qd for 10 days measured 1 hr after 10th dose by HTRF assay relative to control; format: functional; parameters: scale not given: the % may be the effect or the level left
Mus musculus [3] = assay: Inhibition of mRNA splicing of SMN2 exon 7 in C/C-allele mouse harboring FVB.129(B6) Smn1tm5(Smn1/SMN2)Mrph/J assessed as increase in SMN protein level in quadriceps at 1 mg/kg, po qd for 10 days measured 1 hr after 10th dose by HTRF assay relative to control; format: functional; parameters: scale not given: the % may be the effect or the level left
Homo sapiens [4] = species: Homo sapiens; assay: Inhibition of mRNA splicing of SMN2 exon 7 in GM03813 fibroblasts derived from human SMA type 1 patient after 24 hrs by RT-qPCR analysis
Mus musculus [5] = assay: (§1) Inhibition of mRNA splicing of SMN2 exon 7 in neonatal delta7 mouse harboring FVB.Cg-Tg(SMN2 delta7)4299Ahmb Tg(SMN2)-89Ahmb Smn1tm1Msd/J assessed as increase in SMN protein level in brain at 1 mg/kg, ip qd administered from postnatal day 3 to postnatal day 9 measured 1 hr after last dose by HTRF assay relative to control; format: functional; parameters: scale not given: the % may be the effect or the level left
[6] = Fraction unbound in human plasma; format: ADME, cell-free
[7] = Fraction unbound in mouse plasma; format: ADME, cell-free
P-gp (ABCB1) = P-gp (ABCB1) (Homo sapiens, UniProt P08183); assay: Substrate activity at human P-gp assessed as efflux ratio by cell based assay; conditions: not told
Sequence of P-gp (ABCB1) (P08183 whole entry): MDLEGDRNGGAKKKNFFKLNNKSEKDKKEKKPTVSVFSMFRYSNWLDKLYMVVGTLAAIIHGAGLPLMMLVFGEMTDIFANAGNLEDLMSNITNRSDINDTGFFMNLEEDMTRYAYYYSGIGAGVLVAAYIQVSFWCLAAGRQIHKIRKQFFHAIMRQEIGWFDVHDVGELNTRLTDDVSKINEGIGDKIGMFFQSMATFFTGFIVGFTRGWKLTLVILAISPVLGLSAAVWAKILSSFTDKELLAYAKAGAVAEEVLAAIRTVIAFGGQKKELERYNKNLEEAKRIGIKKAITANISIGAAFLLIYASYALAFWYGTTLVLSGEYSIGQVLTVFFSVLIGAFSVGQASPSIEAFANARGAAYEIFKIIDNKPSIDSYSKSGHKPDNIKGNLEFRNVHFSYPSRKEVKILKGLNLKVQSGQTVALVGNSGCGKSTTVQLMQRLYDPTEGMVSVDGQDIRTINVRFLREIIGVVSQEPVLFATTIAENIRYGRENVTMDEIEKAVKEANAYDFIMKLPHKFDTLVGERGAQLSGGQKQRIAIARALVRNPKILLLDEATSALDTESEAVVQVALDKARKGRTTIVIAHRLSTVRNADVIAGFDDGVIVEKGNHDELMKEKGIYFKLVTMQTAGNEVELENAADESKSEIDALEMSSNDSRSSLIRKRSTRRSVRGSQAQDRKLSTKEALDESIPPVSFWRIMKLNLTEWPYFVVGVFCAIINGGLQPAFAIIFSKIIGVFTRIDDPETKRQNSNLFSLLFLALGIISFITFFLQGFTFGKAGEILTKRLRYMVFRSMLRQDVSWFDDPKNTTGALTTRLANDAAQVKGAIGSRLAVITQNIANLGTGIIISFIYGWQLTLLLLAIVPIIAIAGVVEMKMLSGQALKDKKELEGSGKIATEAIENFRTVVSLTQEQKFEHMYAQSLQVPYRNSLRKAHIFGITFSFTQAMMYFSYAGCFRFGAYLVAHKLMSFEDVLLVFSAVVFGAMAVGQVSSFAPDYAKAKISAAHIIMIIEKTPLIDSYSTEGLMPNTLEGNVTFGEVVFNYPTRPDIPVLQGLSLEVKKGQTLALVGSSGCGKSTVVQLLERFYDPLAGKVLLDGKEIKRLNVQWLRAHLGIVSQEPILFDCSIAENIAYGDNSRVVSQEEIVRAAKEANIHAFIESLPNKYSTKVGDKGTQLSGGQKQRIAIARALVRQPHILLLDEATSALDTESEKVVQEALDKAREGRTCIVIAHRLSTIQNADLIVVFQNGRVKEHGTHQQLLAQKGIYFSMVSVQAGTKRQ

[8] = Fraction unbound in Cynomolgus monkey plasma; format: ADME, cell-free, Macaca fascicularis
[9] = Volume of distribution at steady state in rat at 2 mg/kg, iv; format: ADME, organism-based; conditions: in vivo, read-out: Vdss
[10] = Mutagenicity in Salmonella typhimurium TA100 assessed as increase in revertant colonies after 2 days in presence of rat liver S9 fraction by Ames test relative to control; format: toxicity; conditions: salmonella enterica subsp. enterica serovar typhimurium, s9, 48 h
Mus musculus [11] = assay: Inhibition of mRNA splicing of SMN2 exon 7 in C/C-allele mouse harboring FVB.129(B6) Smn1tm5(Smn1/SMN2)Mrph/J assessed as increase in SMN protein level in quadriceps at 3 mg/kg, po qd for 10 days measured 1 hr after 10th dose by HTRF assay relative to control; format: functional; parameters: scale not given: the % may be the effect or the level left
[12] = Fraction unbound in rat plasma; format: ADME, cell-free
Mus musculus [13] = assay: as §1, with “quadriceps” for “brain”; format: functional; parameters: scale not given: the % may be the effect or the level left
Mus musculus [14] = assay: (§2) Inhibition of mRNA splicing of SMN2 exon 7 in neonatal delta7 mouse harboring FVB.Cg-Tg(SMN2 delta7)4299Ahmb Tg(SMN2)-89Ahmb Smn1tm1Msd/J assessed as increase in SMN protein level in brain administered ip qd dosed from postnatal day 3 to postnatal day 9 measured 1 hr after last dose by HTRF assay; format: functional, organism-based
Mus musculus [15] = assay: Inhibition of mRNA splicing of SMN2 exon 7 in C/C-allele mouse harboring FVB.129(B6) Smn1tm5(Smn1/SMN2)Mrph/J assessed as increase in SMN protein level in brain at 3 mg/kg, po qd for 10 days measured 1 hr after 10th dose by HTRF assay relative to control; format: functional; parameters: scale not given: the % may be the effect or the level left
Mus musculus [16] = assay: Inhibition of mRNA splicing of SMN2 exon 7 in C/C-allele mouse harboring FVB.129(B6) Smn1tm5(Smn1/SMN2)Mrph/J assessed as increase in SMN protein level in quadriceps administered orally qd for 10 days measured 1 hr after 10th dose by HTRF assay; format: functional, organism-based
[17] = Mutagenicity in Salmonella typhimurium TA102 assessed as increase in revertant colonies after 2 days in presence of rat liver S9 fraction by Ames test relative to control; format: toxicity; conditions: salmonella enterica subsp. enterica serovar typhimurium, s9, 48 h
[18] = Oral bioavailability in rat at 10 mg/kg; format: ADME, organism-based; conditions: in vivo
Mus musculus [19] = assay: as §1, with “in quadriceps” for “in brain”, “at 0.3” for “at 1”; format: functional; parameters: scale not given: the % may be the effect or the level left
[20] = Volume of distribution at steady state in Cynomolgus monkey at 0.3 mg/kg, iv; format: ADME, organism-based, Macaca fascicularis; conditions: in vivo, read-out: Vdss
[21] = Unbound AUC in plasma of C/C-allele mouse harboring FVB.129(B6)-Smn1tm5(Smn1/SMN2)Mrph/J at 10 mg/kg, po; format: ADME, organism-based; conditions: in vivo
[22] = Octanol-aqueous phosphate buffer distribution coefficient, log D of the compound at pH 7.4 at 100 mM after 24 hrs by LC-MS based shake flask method; format: physicochemical
Homo sapiens [23] = species: Homo sapiens; assay: Inhibition of mRNA splicing of SMN2 exon 7 in fibroblasts derived from human SMA type 1/2/3 patient assessed as increase in SMN protein level after 48 hrs by HTRF assay
[24] = Clearance in rat at 2 mg/kg, iv; format: ADME, organism-based; conditions: in vivo
[25] = Half life in Cynomolgus monkey at 1 mg/kg, po; format: ADME, organism-based, Macaca fascicularis; conditions: in vivo
[26] = Clearance in Cynomolgus monkey at 0.3 mg/kg, iv; format: ADME, organism-based, Macaca fascicularis; conditions: in vivo
[27] = Mutagenicity in Salmonella typhimurium TA98 assessed as increase in revertant colonies after 2 days in presence of rat liver S9 fraction by Ames test relative to control; format: toxicity; conditions: salmonella enterica subsp. enterica serovar typhimurium, s9, 48 h
[28] = Half life in rat at 10 mg/kg, po; format: ADME, organism-based; conditions: in vivo
[29] = AUC in plasma of C/C-allele mouse harboring FVB.129(B6)-Smn1tm5(Smn1/SMN2)Mrph/J at 10 mg/kg, po; format: ADME, organism-based
Mus musculus [30] = assay: Inhibition of mRNA splicing of SMN2 exon 7 in C/C-allele mouse harboring FVB.129(B6) Smn1tm5(Smn1/SMN2)Mrph/J assessed as increase in SMN protein level in brain administered orally po qd for 10 days measured 1 hr after 10th dose by HTRF assay; format: functional, organism-based
Mus musculus [31] = assay: as §2, with “quadriceps” for “brain”; format: functional, organism-based
[32] = Mutagenicity in Salmonella typhimurium TA1535 assessed as increase in revertant colonies after 2 days in presence of rat liver S9 fraction by Ames test relative to control; format: toxicity; conditions: salmonella enterica subsp. enterica serovar typhimurium, s9, 48 h
[33] = Mutagenicity in Salmonella typhimurium TA97 assessed as increase in revertant colonies after 2 days in presence of rat liver S9 fraction by Ames test relative to control; format: toxicity; conditions: salmonella enterica subsp. enterica serovar typhimurium, s9, 48 h
Mus musculus [34] = assay: as §1, with “at 0.3” for “at 1”; format: functional; parameters: scale not given: the % may be the effect or the level left
Mus musculus [35] = assay: Inhibition of mRNA splicing of SMN2 exon 7 in C/C-allele mouse harboring FVB.129(B6) Smn1tm5(Smn1/SMN2)Mrph/J assessed as increase in SMN protein level in brain at 10 mg/kg, po qd for 10 days measured 1 hr after 10th dose by HTRF assay relative to control; format: functional; parameters: scale not given: the % may be the effect or the level left

Compound `Cc1cn2cc(-c3cc(=O)n4cc(N5CCN(C)CC5)ccc4n3)cc(F)c2n1` has a bioavailability [1] of 84%, an Activity (Mus musculus [2]) of 126% and an Activity (Mus musculus [3]) of 40%. The EC1.5 (Homo sapiens [4]) was 32 nM, the Activity (Mus musculus [5]) was 159% and the fraction unbound [6] was 0.22. For the same compound, the fraction unbound [7] was 0.17, the efflux ratio (P-gp (ABCB1)) was 1.9 and the fraction unbound [8] was 0.18. For the same compound, the Vd [9] was 5 L/kg, the Activity [10] was “Non-Toxic” and the Activity (Mus musculus [11]) was 81%. For the same compound, the fraction unbound [12] was 0.16, the Activity (Mus musculus [13]) was 260% and the inhibition (Mus musculus [14]) was “Dose-dependent effect”. For the same compound, the Activity (Mus musculus [15]) was 60%, the inhibition (Mus musculus [16]) was “Dose-dependent effect” and the Activity [17] was “Non-Toxic”. The bioavailability [18] was 100%, the Activity (Mus musculus [19]) was 189% and the Vd [20] was 2.4 L/kg. The fAUC [21] was 450 ng·h/mL, the logD at 24 h [22] was 2.3 and the EC1.5 (Homo sapiens [23]) was 40 nM. For the same compound, the clearance [24] was 61 mL/min/kg, the half-life [25] was 2.9 h and the clearance [26] was 9.7 mL/min/kg. For the same compound, the Activity [27] was “Non-Toxic”, the half-life [28] was 4 h and the AUC [29] was 2700 ng·h/mL. For the same compound, the inhibition (Mus musculus [30]) was “Dose-dependent effect”, the inhibition (Mus musculus [31]) was “Dose-dependent effect” and the Activity [32] was “Non-Toxic”. The Activity [33] was “Non-Toxic”, the Activity (Mus musculus [34]) was 116% and the Activity (Mus musculus [35]) was 141%.
Compound `CCc1nc(C)cn2nc(-c3cc(=O)n4cc(C5CCN(C)CC5)cc(C)c4n3)cc12` has a bioavailability [1] of 52%, an Activity (Mus musculus [2]) of 94% and an Activity (Mus musculus [3]) of 30%. It also gave an EC1.5 (Homo sapiens [4]) of 23 nM, an Activity (Mus musculus [5]) of 55% and a fraction unbound [6] of 0.13. The fraction unbound [7] was 0.02, the efflux ratio (P-gp (ABCB1)) was 2 and the fraction unbound [8] was 0.16. For the same compound, the Vd [9] was 20 L/kg, the Activity [10] was “Non-Toxic” and the Activity (Mus musculus [11]) was 57%. The fraction unbound [12] was 0.17, the Activity (Mus musculus [13]) was 57% and the inhibition (Mus musculus [14]) was “Dose-dependent effect”. The Activity (Mus musculus [15]) was 19%, the inhibition (Mus musculus [16]) was “Dose-dependent effect” and the Activity [17] was “Non-Toxic”. The bioavailability [18] was 83%, the Activity (Mus musculus [19]) was 40% and the Vd [20] was 20 L/kg. It also gave a fAUC [21] of 660 ng·h/mL, a logD at 24 h [22] of 2.26 and an EC1.5 (Homo sapiens [23]) of 87 nM. It also gave a clearance [24] of 18 mL/min/kg, a half-life [25] of 40 to 60 h and a clearance [26] of 5 mL/min/kg. For the same compound, the Activity [27] was “Non-Toxic”, the half-life [28] was 12 h and the AUC [29] was 33000 ng·h/mL. The inhibition (Mus musculus [30]) was “Dose-dependent effect”, the inhibition (Mus musculus [31]) was “Dose-dependent effect” and the Activity [32] was “Non-Toxic”. The Activity [33] was “Non-Toxic”, the Activity (Mus musculus [34]) was 20% and the Activity (Mus musculus [35]) was 122%.
